Measurements from the NIST ThermoML archive (doi:10.1021/acs.jced.5b00922).

Experiment: mn = molality of the nth substance listed, in mol/kg
Conditions: 100 kPa, Liquid; for viscosity: Capillary tube (Ostwald / Ubbelohde) method; for mass density: Pycnometric method

NCCCNCCCN [bis(3-aminopropyl)amine] + O
Conditions	mass density [kg/m3]	viscosity [mPa·s]
298 K, m1 = 0.102	997.56	0.95
298 K, m1 = 0.313	997.47	1.07
298 K, m1 = 0.537	997.32	1.23
298 K, m1 = 0.773	997.12	1.41
298 K, m1 = 1.024	996.9	1.57
298 K, m1 = 1.291	996.71	1.74
303 K, m1 = 0.102	996.21	0.84
303 K, m1 = 0.313	996.12	0.95
303 K, m1 = 0.537	995.98	1.09
303 K, m1 = 0.773	995.83	1.24
303 K, m1 = 1.024	995.67	1.39
303 K, m1 = 1.291	995.53	1.55
308 K, m1 = 0.102	994.48	0.76
308 K, m1 = 0.313	994.37	0.85
308 K, m1 = 0.537	994.17	0.98
308 K, m1 = 0.773	994	1.1
308 K, m1 = 1.024	993.82	1.24
308 K, m1 = 1.291	993.64	1.38
313 K, m1 = 0.102	992.55	0.69
313 K, m1 = 0.313	992.43	0.77
313 K, m1 = 0.537	992.27	0.88
313 K, m1 = 0.773	992.1	0.99
313 K, m1 = 1.024	991.92	1.11
313 K, m1 = 1.291	991.73	1.23
318 K, m1 = 0.102	990.18	0.61
318 K, m1 = 0.313	989.94	0.69
318 K, m1 = 0.537	989.71	0.8
318 K, m1 = 0.773	989.48	0.9
318 K, m1 = 1.024	989.3	1
318 K, m1 = 1.291	989.09	1.11
323 K, m1 = 0.102	987.58	0.55
323 K, m1 = 0.313	987.36	0.63
323 K, m1 = 0.537	987.13	0.73
323 K, m1 = 0.773	986.93	0.81
323 K, m1 = 1.024	986.74	0.9
323 K, m1 = 1.291	986.55	0.98
